# The source made the active and inactive calls. The rule behind the calls is not given here.
# How the values were obtained:
# Format in all cases: functional
# [1] = Cytotoxicity against human HOP62 cells at 10 uM after 48 hrs by SRB assay; conditions: HOP-62, 48 h, read-out: GI
# HCC 2998 = assay: Cytotoxicity against human HCC2998 cells at 10 uM after 48 hrs by SRB assay
# [2] = Cytotoxicity against human IGROV1 cells at 10 uM after 48 hrs by SRB assay; conditions: IGROV-1, 48 h, read-out: GI
# [3] = Cytotoxicity against human RPMI8226 cells at 10 uM after 48 hrs by SRB assay; conditions: RPMI-8226, 48 h, read-out: GI
# HT-29 = assay: Cytotoxicity against human HT-29 cells at 10 uM after 48 hrs by SRB assay; conditions: HT-29, 48 h, read-out: GI
# ACHN = assay: Cytotoxicity against human ACHN cells at 10 uM after 48 hrs by SRB assay; conditions: read-out: GI
# MCF7 = assay: Cytotoxicity against human MCF7 cells at 10 uM after 48 hrs by SRB assay; conditions: MCF7, 48 h, read-out: GI
# [4] = Cytotoxicity against human SF268 cells at 10 uM after 48 hrs by SRB assay; conditions: SF-268, 48 h, read-out: GI
# [5] = Cytotoxicity against human SF295 cells at 10 uM after 48 hrs by SRB assay; conditions: SF-295, 48 h, read-out: GI
# 786-0 = assay: Cytotoxicity against human 786-0 cells at 10 uM after 48 hrs by SRB assay; conditions: 786-0, 48 h, read-out: GI
# [6] = Cytotoxicity against human OVCAR8 cells at 10 uM after 48 hrs by SRB assay; conditions: OVCAR-8, 48 h, read-out: GI
# MDA-MB-231 = assay: Cytotoxicity against human MDA-MB-231 cells at 10 uM after 48 hrs by SRB assay; conditions: MDA-MB-231, 48 h, read-out: GI
# BT-549 = assay: Cytotoxicity against human BT549 cells at 10 uM after 48 hrs by SRB assay
# [7] = Cytotoxicity against human RXF393 cells at 10 uM after 48 hrs by SRB assay; conditions: RXF 393, 48 h, read-out: GI
# M14 = assay: Cytotoxicity against human M14 cells at 10 uM after 48 hrs by SRB assay; conditions: M14, 48 h, read-out: GI
# MDA-MB-435 = assay: Cytotoxicity against human MDA-MB-435 cells at 10 uM after 48 hrs by SRB assay; conditions: MDA-MB-435, 48 h, read-out: GI
# [8] = Cytotoxicity against human UO31 cells at 10 uM after 48 hrs by SRB assay; conditions: UO-31, 48 h, read-out: GI
# [9] = Cytotoxicity against human LOXIMVI cells at 10 uM after 48 hrs by SRB assay; conditions: LOX IMVI, read-out: GI
# [10] = Cytotoxicity against human SF539 cells at 10 uM after 48 hrs by SRB assay; conditions: SF-539, 48 h, read-out: GI
# [11] = Cytotoxicity against human UACC257 cells at 10 uM after 48 hrs by SRB assay; conditions: UACC-257, 48 h, read-out: GI
# A498 = assay: Cytotoxicity against human A498 cells at 10 uM after 48 hrs by SRB assay; conditions: A498, 48 h, read-out: GI
# SK-MEL-28 = assay: Cytotoxicity against human SK-MEL-28 cells at 10 uM after 48 hrs by SRB assay
# MDA-MB-468 = assay: Cytotoxicity against human MDA-MB-468 cells at 10 uM after 48 hrs by SRB assay; conditions: MDA-MB-468, 48 h, read-out: GI
# [12] = Cytotoxicity against human OVCAR4 cells at 10 uM after 48 hrs by SRB assay; conditions: OVCAR-4, 48 h, read-out: GI
# Malme-3M = assay: Cytotoxicity against human MALME-3M cells at 10 uM after 48 hrs by SRB assay
# SK-MEL-2 = assay: Cytotoxicity against human SK-MEL-2 cells at 10 uM after 48 hrs by SRB assay
# K562 = assay: Cytotoxicity against human K562 cells at 10 uM after 48 hrs by SRB assay; conditions: K562, 48 h, read-out: GI
# Hs-578T = assay: Cytotoxicity against human Hs 578T cells at 10 uM after 48 hrs by SRB assay
# SR = assay: Cytotoxicity against human SR cells at 10 uM after 48 hrs by SRB assay; conditions: read-out: GI
# [13] = Cytotoxicity against human HCT116 cells at 10 uM after 48 hrs by SRB assay; conditions: HCT-116, 48 h, read-out: GI
# T47D = assay: Cytotoxicity against human T47D cells at 10 uM after 48 hrs by SRB assay; conditions: read-out: GI
# HL-60(TB) = assay: Cytotoxicity against human HL-60(TB) cells at 10 uM after 48 hrs by SRB assay
# HCT-15 = assay: Cytotoxicity against human HCT15 cells at 10 uM after 48 hrs by SRB assay
# [14] = Cytotoxicity against human COLO205 cells at 10 uM after 48 hrs by SRB assay; conditions: COLO 205, 48 h, read-out: GI
# CCRF-CEM = assay: Cytotoxicity against human CCRF-CEM cells at 10 uM after 48 hrs by SRB assay; conditions: read-out: GI
# OVCAR-5 = assay: Cytotoxicity against human OVCAR5 cells at 10 uM after 48 hrs by SRB assay
# U-251 = assay: Cytotoxicity against human U251 cells at 10 uM after 48 hrs by SRB assay; conditions: U-251, 48 h, read-out: GI
# SW-620 = assay: Cytotoxicity against human SW620 cells at 10 uM after 48 hrs by SRB assay
# A549 = assay: Cytotoxicity against human A549 cells at 10 uM after 48 hrs by SRB assay; conditions: A549, 48 h, read-out: GI
# NCI-H460 = assay: Cytotoxicity against human NCI-H460 cells at 10 uM after 48 hrs by SRB assay; conditions: NCI-H460, 48 h, read-out: GI
# TK-10 = assay: Cytotoxicity against human TK10 cells at 10 uM after 48 hrs by SRB assay
# KM12 = assay: Cytotoxicity against human KM12 cells at 10 uM after 48 hrs by SRB assay; conditions: KM12, 48 h, read-out: GI
# [15] = Cytotoxicity against human NCI-ADR-RES cells at 10 uM after 48 hrs by SRB assay; conditions: read-out: GI
# SK-MEL-5 = assay: Cytotoxicity against human SK-MEL-5 cells at 10 uM after 48 hrs by SRB assay; conditions: SK-MEL-5, 48 h, read-out: GI
# [16] = Cytotoxicity against human HOP92 cells at 10 uM after 48 hrs by SRB assay; conditions: HOP-92, 48 h, read-out: GI
# [17] = Cytotoxicity against human DU145 cells at 10 uM after 48 hrs by SRB assay; conditions: DU-145, 48 h, read-out: GI
# NCI-H322M = assay: Cytotoxicity against human NCI-H322M cells at 10 uM after 48 hrs by SRB assay; conditions: read-out: GI
# NCI-H226 = assay: Cytotoxicity against human NCI-H226 cells at 10 uM after 48 hrs by SRB assay; conditions: NCI-H226, 48 h, read-out: GI
# NCI-H522 = assay: Cytotoxicity against human NCI-H522 cells at 10 uM after 48 hrs by SRB assay; conditions: NCI-H522, 48 h, read-out: GI
# SK-OV-3 = assay: Cytotoxicity against human SKOV3 cells at 10 uM after 48 hrs by SRB assay
# CAKI-1 = assay: Cytotoxicity against human Caki1 cells at 10 uM after 48 hrs by SRB assay
# SNB-19 = assay: Cytotoxicity against human SNB19 cells at 10 uM after 48 hrs by SRB assay
# SNB-75 = assay: Cytotoxicity against human SNB75 cells at 10 uM after 48 hrs by SRB assay
# SN12C = assay: Cytotoxicity against human SN12C cells at 10 uM after 48 hrs by SRB assay; conditions: read-out: GI
# [18] = Cytotoxicity against human OVCAR3 cells at 10 uM after 48 hrs by SRB assay; conditions: OVCAR-3, 48 h, read-out: GI
smiles,measurement,setting,value
Cc1nc2cc(Nc3nc(NCCO)nc(Nc4ccc(F)cc4)n3)ccc2n1Cc1ccccc1,inhibition of growth at 10 µM,[1],6.05%
same,growth inhibition (GI),HCC 2998,inactive
same,inhibition of growth at 10 µM,[2],11.1%
same,inhibition of growth at 10 µM,[3],85.8%
same,inhibition of growth at 10 µM,HT-29,28.1%
same,inhibition of growth at 10 µM,ACHN,1.72%
same,inhibition of growth at 10 µM,MCF7,8.72%
same,inhibition of growth at 10 µM,[4],7.77%
same,inhibition of growth at 10 µM,[5],13.6%
same,inhibition of growth at 10 µM,786-0,5.33%
same,inhibition of growth at 10 µM,[6],20%
same,inhibition of growth at 10 µM,MDA-MB-231,19.7%
same,growth inhibition (GI),BT-549,inactive
same,inhibition of growth at 10 µM,[7],9.82%
same,inhibition of growth at 10 µM,M14,6.95%
same,inhibition of growth at 10 µM,MDA-MB-435,8.37%
same,inhibition of growth at 10 µM,[8],21.2%
same,inhibition of growth at 10 µM,[9],18.1%
same,inhibition of growth at 10 µM,[10],5.61%
same,inhibition of growth at 10 µM,[11],1.2%
same,inhibition of growth at 10 µM,A498,33.8%
same,growth inhibition (GI),SK-MEL-28,inactive
same,inhibition of growth at 10 µM,MDA-MB-468,0.84%
same,inhibition of growth at 10 µM,[12],4.73%
same,growth inhibition (GI),Malme-3M,inactive
same,growth inhibition (GI),SK-MEL-2,inactive
same,inhibition of growth at 10 µM,K562,80.8%
same,growth inhibition (GI),Hs-578T,inactive
same,inhibition of growth at 10 µM,SR,85.1%
same,inhibition of growth at 10 µM,[13],23.4%
same,inhibition of growth at 10 µM,T47D,34.7%
same,growth inhibition (GI),HL-60(TB),Active
same,growth inhibition (GI),HCT-15,inactive
same,inhibition of growth at 10 µM,[14],5.46%
same,inhibition of growth at 10 µM,CCRF-CEM,98.1%
same,growth inhibition (GI),OVCAR-5,inactive
same,inhibition of growth at 10 µM,U-251,13.7%
same,growth inhibition (GI),SW-620,inactive
same,inhibition of growth at 10 µM,A549,25.9%
same,inhibition of growth at 10 µM,NCI-H460,16.5%
same,growth inhibition (GI),TK-10,inactive
same,inhibition of growth at 10 µM,KM12,19.7%
same,inhibition of growth at 10 µM,[15],2.28%
same,inhibition of growth at 10 µM,SK-MEL-5,19.7%
same,inhibition of growth at 10 µM,[16],50.1%
same,inhibition of growth at 10 µM,[17],11.5%
same,inhibition of growth at 10 µM,NCI-H322M,1.09%
same,inhibition of growth at 10 µM,NCI-H226,8.37%
same,inhibition of growth at 10 µM,NCI-H522,14.3%
same,growth inhibition (GI),SK-OV-3,inactive
same,growth inhibition (GI),CAKI-1,inactive
same,growth inhibition (GI),SNB-19,inactive
same,growth inhibition (GI),SNB-75,inactive
same,inhibition of growth at 10 µM,SN12C,8.89%
same,inhibition of growth at 10 µM,[18],9.84%

# Reference: ChEMBL document CHEMBL3745645, “Synthesis, in vitro antitumor activity, dihydrofolate reductase inhibition, DNA intercalation and structure-activity relationship studies of 1,3,5-triazine analogues” (Bioorg Med Chem Lett, 2016)
